Reference: PubChem BioAssay (NCI)
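Compound exposure: 48 hours, 5 concentrations, 96-well plates. TGI is the concentration that stops growth completely.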 Where a SMILES comes first, the peptide text is derived from it. The star is where a group is joined. Boc = CC(C)(C)OC(=O)*

Experiments:
Test in all cases: inhibition of tumour cell growth, NCI panel, 48 h
A498 renal = system: A498 renal
OVCAR-8 ovarian = system: OVCAR-8 ovarian
DU-145 prostate = system: DU-145 prostate
HCT-116 colon = system: HCT-116 colon
SF-268 CNS = system: SF-268 CNS
HL-60(TB) leukemia = system: HL-60(TB) leukemia
NCI-H23 lung = system: NCI-H23 lung
NCI-H226 lung = system: NCI-H226 lung
PC-3 prostate = system: PC-3 prostate
MDA-MB-231 breast = system: MDA-MB-231 breast
786-0 renal = system: 786-0 renal
MDA-MB-435 = system: MDA-MB-435
UO-31 renal = system: UO-31 renal
SK-MEL-5 melanoma = system: SK-MEL-5 melanoma
CAKI-1 renal = system: CAKI-1 renal
NCI-H460 lung = system: NCI-H460 lung
SK-OV-3 ovarian = system: SK-OV-3 ovarian
UACC-257 melanoma = system: UACC-257 melanoma

SMILES	TGI (A498 renal) [µM]	TGI (OVCAR-8 ovarian) [µM]	TGI (DU-145 prostate) [µM]	TGI (HCT-116 colon) [µM]	TGI (SF-268 CNS) [µM]	TGI (HL-60(TB) leukemia) [µM]	TGI (NCI-H23 lung) [µM]	TGI (NCI-H226 lung) [µM]	TGI (PC-3 prostate) [µM]	TGI (MDA-MB-231 breast) [µM]	TGI (786-0 renal) [µM]	TGI (MDA-MB-435) [µM]	TGI (UO-31 renal) [µM]	TGI (SK-MEL-5 melanoma) [µM]	TGI (CAKI-1 renal) [µM]	TGI (NCI-H460 lung) [µM]	TGI (SK-OV-3 ovarian) [µM]	TGI (UACC-257 melanoma) [µM]
CC(C)C1=CC23CCC4C(C)(C(=O)O)CCCC4(C)C2CC1C1C(=O)N(c2ccc(N4C(=O)C5C6CC7C8(C)CCCC(C)(C(=O)O)C8CCC7(C=C6C(C)C)C5C4=O)cc2)C(=O)C13 (configuration not stated)	24.8	16.5	16.6	11.8	22.3	17.2	11.9	13.7	14.1	21.5	> 100	13	34	19.2				
Cc1ccc(S(=O)(=O)NN=C2C(C)CC(C(C)(C)C)CC2C)cc1 (configuration not stated)	31.4	59.8	39.1	34.1		52.7	56.5	34.5	37.9	85.9	32.9	34.9	40.8	31.3	31.6	34.3	51.7	36.6
CNC(=O)Nn1c(SC)nc2ccccc21	> 100	> 100	> 100	> 100	> 100	> 100	> 100	> 100	> 100	> 100	> 100	> 100	> 100	> 100	> 100	> 100	> 100	> 100
O=C(c1ccccc1)c1ccc(N2C(=O)/C(=C/c3cccc([N+](=O)[O-])c3)N=C2c2ccccc2)c(N2C(=O)/C(=C/c3cccc([N+](=O)[O-])c3)N=C2c2ccccc2)c1	> 100	> 100	> 100	> 100	> 100	15.8			> 100	> 100	> 100	29.8	> 100	18.9	> 100	> 100	> 100	> 100
COc1ccc(-c2nc(SCC(=O)N/N=C/c3ccc([N+](=O)[O-])cc3)[nH]c2-c2ccc(OC)cc2)cc1	55.4	> 100	> 100	37.3	> 100	24.7	85.6		> 100	> 100	> 93.1	12.2	> 100	19.9	> 75.6	45.8	> 81.9	49.4
CCCc1c(O)c2ccccc2[nH]c1=O	> 100	> 100	> 100	> 100		> 100	> 100	> 100	> 100	> 100	> 100	> 100	> 100	> 100	> 100	> 100		> 100
CC(C)(C)OC(=O)CCC1NC(=O)[C@@H]2Cc3c([nH]c4ccccc34)C(c3ccccc3)N2C1=O (some centres not stated)	> 100	> 100	> 100	42.7	75.8	51.2	79.6	86.8	52.9	42.1	> 100	52.1	> 100	37.9	75.8		> 100	50.1
C/C(CC(O)(C(F)(F)Cl)C(F)(F)Cl)=N\Nc1ccccc1	> 100	> 100	> 100	> 100		62.5	50	89.1	78.9	> 100	> 100	> 100	> 100	36.9	67.2	> 100	> 100	> 100
CNC(=O)CNC(=O)C(NC(=O)CNC(=O)C1CCCN1C(=O)C(C)NC(=O)C(NC(=O)OC(C)(C)C)C(C)C)C(C)C (configuration not stated) (Boc-VAPGVG-NHMe; configuration not given here)	> 100	> 100	> 100	> 100	> 100	> 100	> 100		> 100	> 100	> 100	> 100	> 100		> 100	> 100	> 100	> 100
Oc1c(Nc2ccccc2)cc2c3c1N=NC=3CCN=2	> 100	59.8	> 100	44.4	> 100	53.2	> 100		> 100	> 100	> 100	31	> 100	33.1	> 100	> 100	> 100	
O=C(O)[C@@]1(Cc2ccc(O)cc2)C[C@@H]2Cc3ccccc3N2N1	> 100	> 100	> 100	> 100	> 100	> 100	> 100	> 100	> 100	> 100	> 100	> 100	> 100	> 100	> 100		> 100	> 100
Cc1ccc(C)n1-n1c(Cc2ccc(Cl)cc2)n[nH]c1=O	> 100	> 100	> 100	> 100	> 100			> 100	> 100	> 100	> 100	> 100	> 100	> 100	> 100	> 100	> 100	> 100
COc1cc(S(=O)(=O)Nc2ccc(-c3csc(/N=C\c4ccccc4O)n3)cc2)ccc1Cl	> 100	> 100	> 100	> 100	> 100	98.6	> 100	> 100	> 100	> 100	> 100	> 100	> 100	> 100	> 100		> 100	
C=CC[C@H](O)[C@@](NC(=O)OCc1ccccc1)(Sc1ccc(C)cc1)C(F)(F)F	> 100	35.3	> 100	60.5	47.9	28.9	70.2	35.9	> 100	59.8	32.7	84	55.4	> 100	87.7	> 100		74.1
CO[C@@H]1C[C@H]2[C@@H]3CC[C@H]([C@@H](C)COC(C)=O)[C@@]3(C)CC[C@@H]2[C@@]2(C)CC[C@H]3C[C@]312	35.6	24.7	27.8	22.2	40.6	19.1	25.4	34.9	29.6	24.3	30.8	29.2	32.4	15.2	21.4	23.4		24.4
CCN(CC)CCOc1ccc(N2Cc3cc(OC)c(OC)cc3C2=O)cc1	> 100	> 100	> 100	> 100	> 100	> 100	> 100	> 100	> 100	> 100	> 100	> 100		> 100	> 100	> 100	> 100	> 100
CC(=O)c1cc2sc3ccccc3c2[nH]1	> 100	> 100	> 100	> 100	> 100		> 100		> 100	> 100	> 100	> 100	> 100	> 100	> 100	> 100	> 100	
O=C(O)CSc1nc2ccccc2[nH]1	> 100	> 100	> 100	> 100	> 100		> 100		> 100	> 100	> 100	> 100	> 100		> 100	> 100		> 100
COc1cc(/C=C2\N=C(c3ccccc3)N(c3ccc4c(c3)Sc3cc(N5C(=O)/C(=C/c6cc(OC)c(OC)c(OC)c6)N=C5c5ccccc5)ccc3N4)C2=O)cc(OC)c1OC	43.1	37.9	> 100	> 100	37.5	65.3	40.3		38.3	67.8	40.9	33.6	> 100	30.1	37.1	> 100	38.1	31.3
C=CC(Br)(CBr)CCC1OC1(C)C (configuration not stated)	40.2		59.8	30.7	31.2	> 100	30.3	42.6	30.9	24.6	29.6	31.3	32.8	27.3	36.4	28.3	51.7	27.7
CCOC(=O)C(=O)N=Nc1c(O)[nH]c2ccccc12	> 100	> 100	> 100	> 100	> 100		> 100	> 100	> 100	> 100	> 100	> 100	> 100	> 100	> 100	> 100	> 100	> 100
O=C(Nn1c(-c2ccccc2)nc2ccccc2c1=O)c1ccc([N+](=O)[O-])cc1	> 100	> 100	> 100		> 100	> 100	> 100	> 100	> 100	> 100	> 100	> 100	> 100	> 100		> 100	> 100	> 100
CC1(C)OC[C@@H]([C@H](C=O)OCc2ccccc2)O1	> 100	> 100	> 100	> 100	> 100		> 100	> 100	> 100	> 100	> 100	> 100	> 100	> 100			> 100	> 100
N=C(N)SCCSC(=N)N	> 100	> 100	> 100	> 100	> 100		> 100	> 100	> 100	> 100	> 100	> 100	> 100	> 100	> 100	> 100	> 100	> 100
CC1(C)CCCCC1/C=C/C(CC(O)(C(F)(F)F)C(F)(F)F)=N\Nc1ccc([N+](=O)[O-])cc1[N+](=O)[O-] (configuration not stated)	6.96	14.7	13.4	6.2	3	> 100	0.778	2.81	5.32	9.62	4.7	7.9	4.15	1.24		6.73	14.8	7.55
Nc1ccc(-c2nnc(-c3c(Cl)c(Cl)c(Cl)c(Cl)c3-c3nc4ccc(C(=O)c5ccccc5)cc4[nH]3)o2)cc1	63.2	> 100	90.5	56.9	> 100		> 100	41.2	49.9	55.4	36.1	75.8	> 100	26.4	> 100		84.2	> 100
COCN1C(=O)[C@@H]2CCCN2C(=O)c2ccc(Cl)cc21	> 100	> 100	> 100	> 100	> 100	> 100	> 100	> 100	> 100	> 100	> 100	> 100	> 100		> 100	> 100	> 100	> 100
